From publication PMC6010117, “Isatin: a privileged scaffold for the design of carbonic anhydrase inhibitors” (Journal of Enzyme Inhibition and Medicinal Chemistry, 2016)

Legend:
Experiment in all cases: CA inhibition assay, Verpoorte method at […] nm, Lineweaver-Burk
Type in all cases: biochemical
hCA I = molecular target: T1, hCA I (Homo sapiens, UniProt P00915)
T1 construct: gene CA1

hCA II = molecular target: T2, hCA II (Homo sapiens, UniProt P00918)
T2 construct: gene CA2

hCA IX = molecular target: T3, hCA IX (Homo sapiens, UniProt Q16790)
T3 construct: gene CA9; not described

hCA XII = molecular target: T4, hCA XII (Homo sapiens, UniProt O43570)
T4 construct: gene CA12; not described
T4 sequence (O43570 25-354): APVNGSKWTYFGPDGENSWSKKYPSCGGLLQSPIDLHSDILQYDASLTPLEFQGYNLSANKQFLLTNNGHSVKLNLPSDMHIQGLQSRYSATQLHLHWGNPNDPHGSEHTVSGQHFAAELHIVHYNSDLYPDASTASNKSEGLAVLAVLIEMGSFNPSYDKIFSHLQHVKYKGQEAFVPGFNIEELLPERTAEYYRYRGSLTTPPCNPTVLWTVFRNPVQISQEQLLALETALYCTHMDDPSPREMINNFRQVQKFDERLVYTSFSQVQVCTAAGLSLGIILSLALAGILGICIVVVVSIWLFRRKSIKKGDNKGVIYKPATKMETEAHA

T1 sequence (P00915 2-261): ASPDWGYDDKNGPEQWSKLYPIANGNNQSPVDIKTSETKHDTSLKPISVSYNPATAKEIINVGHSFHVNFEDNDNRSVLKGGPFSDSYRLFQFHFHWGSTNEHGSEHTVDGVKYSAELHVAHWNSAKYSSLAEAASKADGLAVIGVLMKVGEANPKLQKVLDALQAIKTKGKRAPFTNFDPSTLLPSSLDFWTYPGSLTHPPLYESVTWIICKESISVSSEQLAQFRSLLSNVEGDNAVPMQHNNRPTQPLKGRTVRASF

Compound | Ki (hCA I) | Ki (hCA II) | Ki (hCA IX) | Ki (hCA XII)
CN1C(=O)C(=C2C(=O)Nc3ccc(Cl)cc32)SC1=Nc1ccc(S(N)(=O)=O)cc1 [c, EMAC 10020 c] | 958 nM | 8300 nM | 55.7 nM | 865 nM
CN1C(=O)C(=C2C(=O)Nc3ccc(F)cc32)SC1=Nc1ccc(S(N)(=O)=O)cc1 [d, EMAC 10020 d] | 50.3 nM | 274 nM | 50.7 nM | 85 nM
Cc1ccc2c(c1)C(=C1SC(=Nc3ccc(S(N)(=O)=O)cc3)N(C)C1=O)C(=O)N2 [l, EMAC 10020 l] | 87.6 nM | 79.1 nM | 3 nM | 440 nM
CN1C(=O)C(=C2C(=O)Nc3c(F)cccc32)SC1=Nc1ccc(S(N)(=O)=O)cc1 [m, EMAC 10020 m] | 44.3 nM | 139 nM | 4.1 nM | 90.7 nM
CN1C(=O)C(=C2C(=O)Nc3ccc(C(F)(F)F)cc32)SC1=Nc1ccc(S(N)(=O)=O)cc1 [n, EMAC 10020 n] | 945 nM | 5720 nM | 2660 nM | 873 nM
CN1C(=O)C(=C2C(=O)Nc3c(Br)cccc32)SC1=Nc1ccc(S(N)(=O)=O)cc1 [o, EMAC 10020 o] | 877 nM | 8780 nM | 126 nM | 824 nM
